Here are results for 8 molecules from PubChem BioAssay (NCI).

Among the test systems are HCT-15 colon; KM12 colon; NCI-H23 lung; NCI-H460 lung; RPMI-8226 leukemia; SK-MEL-2 melanoma; SK-MEL-5 melanoma; SK-OV-3 ovarian; SNB-19 CNS; SNB-75 CNS.
Test in all cases: inhibition of tumour cell growth, NCI panel, 48 h

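These data come from cells grown in 96-well plates and exposed to compound for 48 hours at five concentrations. GI50 marks 50% less growth. Definition used: TGI = concentration required for complete inhibition of growth.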

As to `CCOC(=O)CCc1cc(=O)oc2cc(O)cc(O)c12`, the TGI in the assay on HCT-15 colon, in the assay with KM12 colon, in the assay on NCI-H23 lung, with NCI-H460 lung, with RPMI-8226 leukemia and in the assay with SK-MEL-2 melanoma was greater than 100 µM throughout. Moreover, the TGI with SK-MEL-5 melanoma, in the assay with SK-OV-3 ovarian, in the assay with SNB-19 CNS and in the assay on SNB-75 CNS was greater than 100 µM each time.

For the molecule `O=C1c2c(c3c4ccccc4n(CCCCCCBr)c3c3[nH]c4ccccc4c23)C(=O)N1O`, the GI50 was 2.64 µM in the assay on HCT-15 colon; 2.59 µM in the assay with KM12 colon; 2.23 µM in the assay with NCI-H23 lung; 3.35 µM in the assay on NCI-H460 lung; 1.92 µM with RPMI-8226 leukemia; 2.09 µM in the assay with SK-MEL-2 melanoma. In addition, the GI50 in the assay on SK-MEL-5 melanoma is 1.48 µM; in the assay on SK-OV-3 ovarian, 2.87 µM; in the assay with SNB-19 CNS, 4.98 µM; in the assay with SNB-75 CNS it was 3.14 µM. Besides, the TGI with HCT-15 colon worked out at 11.2 µM; in the assay on KM12 colon it was 10.4 µM; in the assay with NCI-H23 lung, 7.09 µM; in the assay with NCI-H460 lung it was 11.8 µM; with RPMI-8226 leukemia, 5.57 µM; in the assay on SK-MEL-2 melanoma, 5.27 µM. Also, the TGI in the assay on SK-MEL-5 melanoma worked out at 2.8 µM; in the assay with SK-OV-3 ovarian it was 10.4 µM; in the assay on SNB-19 CNS, 21.5 µM; in the assay on SNB-75 CNS, 16.5 µM.

On to `Cc1ccc(S(=O)(=O)N(CCOc2ccc(/C(N)=N/Cl)cc2)CCOc2ccc(/C(N)=N\Cl)cc2)cc1`, for which the GI50 is greater than 100 µM with HCT-15 colon; 12.4 µM in the assay with KM12 colon; 12 µM in the assay on NCI-H23 lung; 5.62 µM in the assay on NCI-H460 lung; 8.99 µM with RPMI-8226 leukemia; greater than 100 µM in the assay on SK-MEL-2 melanoma. Moreover, the GI50 with SK-MEL-5 melanoma was 10.3 µM; in the assay with SK-OV-3 ovarian it was 83.3 µM; in the assay with SNB-19 CNS it was 5.65 µM; with SNB-75 CNS it was 4.92 µM. Also, the TGI in the assay with HCT-15 colon is greater than 100 µM; with KM12 colon, 28.1 µM; in the assay on NCI-H23 lung, 40.1 µM; with NCI-H460 lung, 25.2 µM; in the assay with RPMI-8226 leukemia, greater than 100 µM; in the assay with SK-MEL-2 melanoma, greater than 100 µM. Further, the TGI in the assay with SK-MEL-5 melanoma was 26.8 µM; in the assay with SK-OV-3 ovarian, greater than 100 µM; in the assay with SNB-19 CNS, greater than 100 µM; in the assay on SNB-75 CNS it was 20.1 µM.

For `N#C/C(=C/c1ccsc1)C(=O)c1ccccc1`, the TGI in the assay with HCT-15 colon, with KM12 colon, in the assay with NCI-H23 lung, in the assay on NCI-H460 lung, with RPMI-8226 leukemia and with SK-MEL-2 melanoma was greater than 100 µM each time. For the same molecule, the TGI in the assay with SK-MEL-5 melanoma, in the assay with SK-OV-3 ovarian, in the assay on SNB-19 CNS and with SNB-75 CNS was greater than 100 µM each time.

With `CCCCNC1=C(C(=O)OCC)C(=O)CO1`, the TGI in the assay with HCT-15 colon, with KM12 colon, in the assay with NCI-H23 lung, in the assay with NCI-H460 lung, in the assay with RPMI-8226 leukemia and with SK-MEL-2 melanoma was greater than 100 µM throughout. In addition, the TGI in the assay on SK-MEL-5 melanoma, in the assay with SK-OV-3 ovarian, in the assay on SNB-19 CNS and with SNB-75 CNS was greater than 100 µM in each case.

Consider `COC(=O)c1cc2c3ccccc3[nH]c2c2ncccc12`, for which the GI50 with HCT-15 colon was 21.4 µM; in the assay on KM12 colon, 81.1 µM; in the assay on NCI-H23 lung it was 27.2 µM; in the assay with NCI-H460 lung, 51.4 µM; in the assay on RPMI-8226 leukemia it was 56.3 µM; in the assay with SK-MEL-2 melanoma, greater than 100 µM. Also, the GI50 is 58 µM in the assay on SK-MEL-5 melanoma, 43.3 µM with SK-OV-3 ovarian, 66.5 µM in the assay with SNB-19 CNS and 17.3 µM with SNB-75 CNS. Further, the TGI with HCT-15 colon, in the assay on KM12 colon, in the assay on NCI-H23 lung, with NCI-H460 lung, with RPMI-8226 leukemia and with SK-MEL-2 melanoma was greater than 100 µM in each case. The TGI was greater than 100 µM in the assay on SK-MEL-5 melanoma, greater than 100 µM with SK-OV-3 ovarian, greater than 100 µM in the assay with SNB-19 CNS and 65.3 µM with SNB-75 CNS.

`N#CC(C(=N/O)/C(=N/O)C(C#N)c1ccc(Cl)cc1)c1ccc(Cl)cc1` (stereo not drawn): the TGI in the assay on HCT-15 colon, in the assay with KM12 colon, with NCI-H23 lung, in the assay with NCI-H460 lung, in the assay with RPMI-8226 leukemia and in the assay on SK-MEL-2 melanoma was greater than 100 µM throughout. Also, the TGI with SK-OV-3 ovarian, in the assay on SNB-19 CNS and in the assay on SNB-75 CNS was greater than 100 µM each time.

Consider `Clc1ccc(C2N3CCCCC3[C@@H]3c4[nH]c5ccccc5c4CCN23)cc1` (stereo partly drawn), for which the TGI in the assay with HCT-15 colon, with NCI-H23 lung, in the assay with NCI-H460 lung, in the assay with RPMI-8226 leukemia, in the assay on SK-MEL-2 melanoma and in the assay with SK-MEL-5 melanoma was greater than 100 µM each time. The TGI in the assay with SK-OV-3 ovarian, in the assay with SNB-19 CNS and in the assay on SNB-75 CNS was greater than 100 µM in each case.
